Results reported in BindingDB's records for doi:10.1016/j.bmcl.2017.09.011 (Alma Mater Studiorum-University of Bologna, 2017).
pIC50: −log10 of the molar value.

Target: DNA topoisomerase 2-alpha (Homo sapiens, UniProt P11388)
Test: ChEBML_1696318
Procedure: Inhibition of recombinant human topoisomerase-2alpha expressed in Saccharomyces cerevisiae JEL1 harboring topoisomerase1 deletion mutant assessed as reduction in enzyme-mediated [gamma32P]ATP hydrolysis using relaxed pBR322 DNA as substrate after 8 mins

Sequence of DNA topoisomerase 2-alpha (P11388 whole entry): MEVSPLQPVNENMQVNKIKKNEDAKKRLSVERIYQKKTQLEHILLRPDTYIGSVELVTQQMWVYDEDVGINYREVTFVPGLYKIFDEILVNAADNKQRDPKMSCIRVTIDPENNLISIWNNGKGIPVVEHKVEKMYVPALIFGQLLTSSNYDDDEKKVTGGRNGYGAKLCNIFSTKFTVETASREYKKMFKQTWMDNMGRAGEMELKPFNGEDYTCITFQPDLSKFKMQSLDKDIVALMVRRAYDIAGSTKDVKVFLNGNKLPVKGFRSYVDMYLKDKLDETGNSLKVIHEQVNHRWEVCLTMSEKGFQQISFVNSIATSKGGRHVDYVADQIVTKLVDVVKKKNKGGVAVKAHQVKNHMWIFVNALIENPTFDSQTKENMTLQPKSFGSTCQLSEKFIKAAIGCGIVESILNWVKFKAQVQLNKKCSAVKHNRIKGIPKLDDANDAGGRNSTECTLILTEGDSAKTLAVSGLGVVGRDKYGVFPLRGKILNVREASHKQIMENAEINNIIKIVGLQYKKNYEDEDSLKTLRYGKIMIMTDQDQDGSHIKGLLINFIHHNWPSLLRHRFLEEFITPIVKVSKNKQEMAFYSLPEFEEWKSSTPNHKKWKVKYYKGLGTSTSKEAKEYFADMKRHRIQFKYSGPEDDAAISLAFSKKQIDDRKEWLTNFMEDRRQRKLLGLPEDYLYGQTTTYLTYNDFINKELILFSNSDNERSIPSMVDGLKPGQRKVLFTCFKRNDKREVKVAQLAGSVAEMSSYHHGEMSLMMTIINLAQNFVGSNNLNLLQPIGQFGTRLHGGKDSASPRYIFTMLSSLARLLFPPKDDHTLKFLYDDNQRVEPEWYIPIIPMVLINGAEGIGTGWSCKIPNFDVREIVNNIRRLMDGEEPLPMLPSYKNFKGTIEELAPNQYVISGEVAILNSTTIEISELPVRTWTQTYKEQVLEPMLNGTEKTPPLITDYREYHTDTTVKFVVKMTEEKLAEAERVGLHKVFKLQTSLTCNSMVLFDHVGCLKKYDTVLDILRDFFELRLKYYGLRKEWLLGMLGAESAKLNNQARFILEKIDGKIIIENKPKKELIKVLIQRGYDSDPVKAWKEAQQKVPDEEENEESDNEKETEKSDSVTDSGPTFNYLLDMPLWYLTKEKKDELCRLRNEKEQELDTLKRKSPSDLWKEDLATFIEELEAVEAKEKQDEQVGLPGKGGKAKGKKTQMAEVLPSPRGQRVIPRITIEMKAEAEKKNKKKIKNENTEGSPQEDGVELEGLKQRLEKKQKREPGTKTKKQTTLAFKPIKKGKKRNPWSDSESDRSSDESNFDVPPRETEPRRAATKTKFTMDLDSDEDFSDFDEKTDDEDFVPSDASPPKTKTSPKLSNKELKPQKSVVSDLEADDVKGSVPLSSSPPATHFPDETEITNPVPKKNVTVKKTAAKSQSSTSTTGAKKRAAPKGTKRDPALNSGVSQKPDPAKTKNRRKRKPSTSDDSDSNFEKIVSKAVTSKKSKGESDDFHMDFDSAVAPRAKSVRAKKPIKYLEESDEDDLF

pIC50: 5.60
SMILES: NCCCCNCC(O)COc1cc(O)c2c(=O)c3ccccc3oc2c1 (stereo unspecified)
